# Assays:
# Format in all cases: physicochemical
# [1] = Storage stability of temozolomide in type 3 packaging, purity by HPLC (Example 3); conditions: for Initial purity, % by HPLC: before starting the storage period; for Initial purity, % by HPLC / Purity, % by HPLC after 1 month of storage / Purity, % by HPLC after 2 months of storage / Purity, % by HPLC after 6 month of storage: % area; for Purity, % by HPLC after 1 month of storage / Purity, % by HPLC after 2 months of storage / Purity, % by HPLC after 6 month of storage: warehouse conditions; for Purity, % by HPLC after 6 month of storage: 6 months
# Experimental: Analytical measurements of the temozolomide samples were performed using an HPLC system equipped with Phenomenex Synergi™ Fusion-RP C18 column, 250×4.6 mm, and a UV detector operated on 250 nm. Analyses were performed using the following mobile phase, at flow rate of 1.0 ml/minute: Mobile phase: 90% Solution A: 0.02M potassium dihydrogen phosphate buffer (pH 3); 10% Solution B: acetonitrile.
# Three different samples of temozolomide were stored at warehouse conditions in a type 3 packaging. A small quantity was taken from each sample after 1, 2 and 6 months and the purity was checked by HPLC and compared to the original HPLC chromatogram of each sample (before starting the storage period). The purity of each sample was obtained as % area by the HPLC chromatogram and compared to the initial purity value (before starting the storage period).
# [2] = Effect of relative humidity on temozolomide stability, visual colour test in open glass vessel (Example 4)
# Experimental: Three samples of temozolomide were stored in an open glass vessel at different relative humidity (RH) conditions for storage periods of up to 3 weeks, after which time the color changes were evaluated.
# [3] = Colour stability of temozolomide in different drug packaging at warehouse conditions (Example 2)
# Excerpt: Exemplary packaging, which can be used in the storage system of the present invention, can include, e.g., packaging type 1, packaging type 2 and/or packaging type 3. When packaging type 1 is used, the temozolomide is preferably contained (e.g., packed or packaged) in a sealed transparent polymeric bag (e.g., a sealed polyethylene bag). When packaging type 2 is used, the temozolomide is preferably contained (e.g., packed or packaged) in a sealed transparent polymeric bag (e.g., a sealed polyethylene bag), which is inserted into another opaque (e.g., black) polymeric bag (e.g., a black polyethylene bag), which is then sealed effectively to prevent penetration of humidity, oxygen and/or light. When packaging type 3 is used, the temozolomide is preferably contained (e.g., packaged or packed) in a sealed transparent polymeric bag (e.g., a sealed polyethylene bag), which is inserted in an opaque (e.g., black) polymeric bag (e.g., a black polyethylene bag), which is then sealed and, in turn, put inside a sealed laminated aluminum bag, which is then sealed. For packaging type 2 and packaging type 3, a desiccant can be interposed (e.g., dispersed) between the two plastic layers (e.g., between the transparent and opaque polymeric bags).
# Exemplary packaging for the storage system of the present invention can include packaging type 1, wherein temozolomide is packed and sealed in a transparent polyethylene bag. Exemplary packaging for the storage system of the present invention also can include packaging type 2, wherein temozolomide is packed and sealed in a transparent polyethylene bag, which is inserted into an opaque (e.g., black) polyethylene bag, which is then sealed, wherein the packaging is sealed effectively to prevent penetration of humidity and/or oxygen. Exemplary packaging for the storage system of the present invention also can include packaging type 3, wherein temozolomide is packed and sealed in a transparent polyethylene bag, which is packed in an opaque (e.g., black) polyethylene bag, which is then sealed and, in turn, packed and sealed in a laminated aluminum bag, which is then sealed. In packaging type 2 and in packaging type 3, a desiccant optionally can be interposed (e.g., dispersed) between the two polymeric bags/layers. In accordance with the present invention, each packaging, e.g., packaging type 1, type 2, and/or type 3 as described herein, can be packed under an inert atmosphere (e.g., under a nitrogen atmosphere) or in ambient air. In a preferred embodiment, the storage system of the present invention includes a type 3 packaging with a silica gel desiccant, wherein the packaging is optionally packed and sealed under a nitrogen atmosphere. An exemplary type 3 packaging is described in Example 2, which describes a type 3 packaging containing a silica gel desiccant, optionally under nitrogen atmosphere, which is effective in maintaining the temozolomide white color for long storage periods. […]
"Initial purity, % by HPLC [1] [%]","Purity, % by HPLC after 1 month of storage ([1]; type 3 packaging) [%]","Purity, % by HPLC after 2 months of storage ([1]; type 3 packaging) [%]","Purity, % by HPLC after 6 month of storage ([1]; type 3 packaging) [%]","Result of visual test ([2]; RH 20%, 3 weeks)","Result of visual test ([2]; RH 80%, 4 days)","Color ([3]; Type 1 at ambient air, storage period 6 weeks, warehouse conditions, initially white)","Color ([3]; Type 3 - the inner bag of entry 2 was left out (sealed) for two more weeks, 6 weeks)","Color ([3]; Type 3 at ambient air containing a desiccant in the inner packaging, 4 weeks, warehouse conditions)","Color ([3]; Type 3 at ambient air containing a desiccant in the inner packaging, 10 weeks, warehouse conditions)","Color ([3]; Type 3 under nitrogen containing a desiccant in the inner packaging, 6 weeks, warehouse conditions)","Color ([3]; Type 3 under nitrogen without desiccant in the inner packaging, 8 weeks, warehouse conditions)",SMILES,"Rate of decomposition on storage ([1]; type 3 packaging, wet sample (water about 1.8%) vs dry samples 3417 and 3034 (water less than 0.1%, KF))"
97.9,97.3,97.3,96.2,,,,,,,,,"Cn1nnc2c(C(N)=O)ncn2c1=O [Sample 519, temozolomide]",appeared to decompose at a faster rate than the dry samples
99.8,99.7,99.8,99.8,,,,,,,,,"Cn1nnc2c(C(N)=O)ncn2c1=O [Sample 3034, temozolomide]",
99.7,99.8,99.9,99.7,,,,,,,,,"Cn1nnc2c(C(N)=O)ncn2c1=O [Sample 3417, temozolomide]",
,,,,White,pink color,pinkish,pinkish,white,white,white,pinkish,"Cn1nnc2c(C(N)=O)ncn2c1=O [temozolomide, 8-carbamoyl-3-methyl-imidazo[5,1-d]-1,2,3,5-tetrazin-4(3H)-one]",

# From patent US20060222792A1, “Temozolomide storage system” (CHEMAGIS LTD., priority 2006, published 2006)
